In article PMC10150365 (Journal of Medicinal Chemistry, 2023):

What was measured:
Cannabinoid CB2 = biological target: T1, Cannabinoid CB2 (Homo sapiens, UniProt P34972); experiment: Cerep SafetyScreen-87; type: binding; details: n=2
T1 construct: purchased Eurofins Cerep/Panlabs SafetyScreen-87

Cyclooxigenase COX-2 = biological target: T2, Cyclooxigenase COX-2 (Homo sapiens, UniProt P35354); experiment: Cerep SafetyScreen-87; type: biochemical; details: n=2
T2 construct: purchased Eurofins Cerep/Panlabs SafetyScreen-87

[1] = biological target: T3, Cholinesterase, Acetyl, ACES (Homo sapiens, UniProt P22303); experiment: Cerep SafetyScreen-87; type: biochemical; details: n=2
T3 construct: purchased Eurofins Cerep/Panlabs SafetyScreen-87

Adrenergic α1D = biological target: T4, Adrenergic α1D (Homo sapiens, UniProt P25100); experiment: Cerep SafetyScreen-87; type: binding; details: n=2
T4 construct: purchased Eurofins Cerep/Panlabs SafetyScreen-87
T4 sequence (P25100 whole entry): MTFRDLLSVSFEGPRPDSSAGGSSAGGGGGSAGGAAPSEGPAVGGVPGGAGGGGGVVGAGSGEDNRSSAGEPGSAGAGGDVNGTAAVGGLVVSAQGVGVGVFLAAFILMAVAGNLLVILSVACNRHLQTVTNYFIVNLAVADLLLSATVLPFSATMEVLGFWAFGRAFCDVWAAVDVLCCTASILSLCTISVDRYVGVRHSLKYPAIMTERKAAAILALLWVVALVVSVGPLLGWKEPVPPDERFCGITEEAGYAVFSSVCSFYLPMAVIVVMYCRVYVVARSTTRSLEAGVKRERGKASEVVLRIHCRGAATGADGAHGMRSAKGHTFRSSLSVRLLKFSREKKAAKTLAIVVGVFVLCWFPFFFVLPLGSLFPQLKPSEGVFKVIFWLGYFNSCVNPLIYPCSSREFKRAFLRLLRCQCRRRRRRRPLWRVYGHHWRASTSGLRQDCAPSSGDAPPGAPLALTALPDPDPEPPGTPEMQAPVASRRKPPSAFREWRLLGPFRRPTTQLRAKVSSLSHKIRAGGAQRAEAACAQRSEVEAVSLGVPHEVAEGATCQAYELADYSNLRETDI

[2] = biological target: T5, Serotonin (5-Hydroxytryptamine) 5-HT1B (Homo sapiens, UniProt P28222); experiment: Cerep SafetyScreen-87; type: binding; details: n=2
T5 construct: purchased Eurofins Cerep/Panlabs SafetyScreen-87

[3] = biological target: T6, Protein Tyrosine Kinase, Insulin Receptor (Homo sapiens, UniProt P06213); experiment: Cerep SafetyScreen-87; type: biochemical; details: n=2
T6 construct: purchased Eurofins Cerep/Panlabs SafetyScreen-87
T6 sequence (P06213 28-1382): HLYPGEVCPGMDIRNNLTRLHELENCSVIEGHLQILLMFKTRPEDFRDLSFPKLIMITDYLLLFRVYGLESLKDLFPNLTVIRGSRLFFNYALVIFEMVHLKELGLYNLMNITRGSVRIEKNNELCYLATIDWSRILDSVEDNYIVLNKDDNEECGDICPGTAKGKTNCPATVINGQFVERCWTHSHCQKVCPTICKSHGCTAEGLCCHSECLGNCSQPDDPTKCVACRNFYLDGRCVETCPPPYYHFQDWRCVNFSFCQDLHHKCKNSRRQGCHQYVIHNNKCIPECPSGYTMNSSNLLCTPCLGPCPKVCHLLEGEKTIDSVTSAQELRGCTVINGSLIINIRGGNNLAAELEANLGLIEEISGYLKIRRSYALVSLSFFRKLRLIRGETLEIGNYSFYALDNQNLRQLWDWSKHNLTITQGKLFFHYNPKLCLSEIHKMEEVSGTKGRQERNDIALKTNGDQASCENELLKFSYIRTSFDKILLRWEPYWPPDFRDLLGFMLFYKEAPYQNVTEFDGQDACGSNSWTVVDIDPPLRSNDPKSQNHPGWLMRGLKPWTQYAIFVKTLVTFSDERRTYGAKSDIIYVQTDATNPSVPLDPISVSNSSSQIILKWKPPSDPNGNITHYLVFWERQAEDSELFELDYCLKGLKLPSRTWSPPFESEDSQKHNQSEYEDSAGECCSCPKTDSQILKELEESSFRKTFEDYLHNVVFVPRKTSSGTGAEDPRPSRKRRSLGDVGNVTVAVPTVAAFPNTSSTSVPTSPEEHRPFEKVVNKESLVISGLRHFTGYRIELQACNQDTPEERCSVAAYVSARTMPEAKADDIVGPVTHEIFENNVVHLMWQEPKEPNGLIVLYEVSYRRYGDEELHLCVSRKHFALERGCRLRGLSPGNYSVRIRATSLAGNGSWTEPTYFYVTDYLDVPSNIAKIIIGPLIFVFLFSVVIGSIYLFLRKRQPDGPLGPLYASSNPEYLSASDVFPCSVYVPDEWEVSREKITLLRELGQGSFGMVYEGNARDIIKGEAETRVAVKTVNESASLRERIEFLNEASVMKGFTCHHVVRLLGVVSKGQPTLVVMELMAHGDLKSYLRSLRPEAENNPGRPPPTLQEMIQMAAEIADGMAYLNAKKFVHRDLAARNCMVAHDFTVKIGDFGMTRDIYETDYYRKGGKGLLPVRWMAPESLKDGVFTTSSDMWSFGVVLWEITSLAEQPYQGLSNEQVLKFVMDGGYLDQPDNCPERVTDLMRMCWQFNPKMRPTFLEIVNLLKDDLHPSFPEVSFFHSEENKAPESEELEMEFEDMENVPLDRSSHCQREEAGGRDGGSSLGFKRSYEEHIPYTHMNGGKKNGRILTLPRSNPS

Progesterone PR-B = biological target: T7, Progesterone PR-B (Homo sapiens, UniProt P06401); experiment: Cerep SafetyScreen-87; type: binding; details: n=2
T7 construct: purchased Eurofins Cerep/Panlabs SafetyScreen-87

Dopamine D2L = biological target: T8, Dopamine D2L (Homo sapiens, UniProt P14416); experiment: Cerep SafetyScreen-87; type: binding; details: n=2
T8 construct: purchased Eurofins Cerep/Panlabs SafetyScreen-87

Melanocortin MC4 = biological target: T9, Melanocortin MC4 (Homo sapiens, UniProt P32245); experiment: Cerep SafetyScreen-87; type: binding; details: n=2
T9 construct: purchased Eurofins Cerep/Panlabs SafetyScreen-87

Bradykinin B2 = biological target: T10, Bradykinin B2 (Homo sapiens, UniProt P30411); experiment: Cerep SafetyScreen-87; type: binding; details: n=2
T10 construct: purchased Eurofins Cerep/Panlabs SafetyScreen-87

Opiate δ1 (OP1, DOP) = biological target: T11, Opiate δ1 (OP1, DOP) (Homo sapiens, UniProt P41143); experiment: Cerep SafetyScreen-87; type: binding; details: n=2
T11 construct: purchased Eurofins Cerep/Panlabs SafetyScreen-87
T11 sequence (P41143 whole entry): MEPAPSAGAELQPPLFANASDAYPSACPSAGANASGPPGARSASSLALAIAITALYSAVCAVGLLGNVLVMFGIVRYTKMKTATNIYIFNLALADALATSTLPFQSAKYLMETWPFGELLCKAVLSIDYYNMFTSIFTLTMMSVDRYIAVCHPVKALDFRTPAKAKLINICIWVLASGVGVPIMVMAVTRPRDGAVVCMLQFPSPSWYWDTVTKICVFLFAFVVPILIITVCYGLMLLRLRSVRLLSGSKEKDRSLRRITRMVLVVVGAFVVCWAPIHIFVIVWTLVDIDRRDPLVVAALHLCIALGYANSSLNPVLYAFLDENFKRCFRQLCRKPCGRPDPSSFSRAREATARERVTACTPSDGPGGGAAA

Muscarinic M3 = biological target: T12, Muscarinic M3 (Homo sapiens, UniProt P20309); experiment: Cerep SafetyScreen-87; type: binding; details: n=2
T12 construct: purchased Eurofins Cerep/Panlabs SafetyScreen-87

[4] = biological target: T13, Protein Tyrosine Kinase, LCK (Homo sapiens, UniProt P06239); experiment: Cerep SafetyScreen-87; type: biochemical; details: n=2
T13 construct: purchased Eurofins Cerep/Panlabs SafetyScreen-87

Chemokine CXCR2 (IL-8RB) = biological target: T14, Chemokine CXCR2 (IL-8RB) (Homo sapiens, UniProt P25025); experiment: Cerep SafetyScreen-87; type: binding; details: n=2
T14 construct: purchased Eurofins Cerep/Panlabs SafetyScreen-87

Monoamine Oxidase MAO-B = biological target: T15, Monoamine Oxidase MAO-B (Homo sapiens, UniProt P27338); experiment: Cerep SafetyScreen-87; type: biochemical; details: n=2
T15 construct: purchased Eurofins Cerep/Panlabs SafetyScreen-87
T15 sequence (P27338 whole entry): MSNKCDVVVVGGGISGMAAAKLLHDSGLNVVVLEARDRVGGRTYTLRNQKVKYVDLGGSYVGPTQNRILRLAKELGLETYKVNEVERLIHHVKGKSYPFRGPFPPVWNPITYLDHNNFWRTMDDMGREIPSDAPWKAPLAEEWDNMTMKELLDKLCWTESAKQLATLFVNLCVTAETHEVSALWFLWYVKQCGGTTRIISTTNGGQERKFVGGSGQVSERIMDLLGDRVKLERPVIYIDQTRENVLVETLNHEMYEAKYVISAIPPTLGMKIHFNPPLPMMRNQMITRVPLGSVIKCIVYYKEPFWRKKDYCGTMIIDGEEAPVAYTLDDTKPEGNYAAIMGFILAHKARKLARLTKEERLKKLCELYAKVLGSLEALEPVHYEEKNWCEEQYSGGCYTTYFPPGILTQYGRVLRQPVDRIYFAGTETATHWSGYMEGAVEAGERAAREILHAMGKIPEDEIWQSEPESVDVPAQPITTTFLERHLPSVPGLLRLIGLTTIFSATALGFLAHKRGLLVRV

GABAB1A = biological target: T16, GABAB1A (Homo sapiens, UniProt Q9UBS5); experiment: Cerep SafetyScreen-87; type: binding; details: n=2
T16 construct: purchased Eurofins Cerep/Panlabs SafetyScreen-87

Muscarinic M1 = biological target: T17, Muscarinic M1 (Homo sapiens, UniProt P11229); experiment: Cerep SafetyScreen-87; type: binding; details: n=2
T17 construct: purchased Eurofins Cerep/Panlabs SafetyScreen-87

Adrenergic β2 = biological target: T18, Adrenergic β2 (Homo sapiens, UniProt P07550); experiment: Cerep SafetyScreen-87; type: binding; details: n=2
T18 construct: purchased Eurofins Cerep/Panlabs SafetyScreen-87

[5] = biological target: T19, Transporter, Serotonin (5-Hydroxytryptamine) (SERT) (Homo sapiens, UniProt P31645); experiment: Cerep SafetyScreen-87; type: binding; details: n=2
T19 construct: purchased Eurofins Cerep/Panlabs SafetyScreen-87

[6] = biological target: T20, Peptidase, CTSG (Cathepsin G) (Homo sapiens, UniProt P08311); experiment: Cerep SafetyScreen-87; type: biochemical; details: n=2
T20 construct: purchased Eurofins Cerep/Panlabs SafetyScreen-87

Opiate K (OP2, KOP) = biological target: T21, Opiate K (OP2, KOP) (Homo sapiens, UniProt P41145); experiment: Cerep SafetyScreen-87; type: binding; details: n=2
T21 construct: purchased Eurofins Cerep/Panlabs SafetyScreen-87

[7] = biological target: T22, Glutamate, Metabotropic, mGlu5 (Homo sapiens, UniProt P41594); experiment: Cerep SafetyScreen-87; type: binding; details: n=2
T22 construct: purchased Eurofins Cerep/Panlabs SafetyScreen-87

Melanocortin MC1 = biological target: T23, Melanocortin MC1 (Homo sapiens, UniProt Q01726); experiment: Cerep SafetyScreen-87; type: binding; details: n=2
T23 construct: purchased Eurofins Cerep/Panlabs SafetyScreen-87
T23 sequence (Q01726 whole entry): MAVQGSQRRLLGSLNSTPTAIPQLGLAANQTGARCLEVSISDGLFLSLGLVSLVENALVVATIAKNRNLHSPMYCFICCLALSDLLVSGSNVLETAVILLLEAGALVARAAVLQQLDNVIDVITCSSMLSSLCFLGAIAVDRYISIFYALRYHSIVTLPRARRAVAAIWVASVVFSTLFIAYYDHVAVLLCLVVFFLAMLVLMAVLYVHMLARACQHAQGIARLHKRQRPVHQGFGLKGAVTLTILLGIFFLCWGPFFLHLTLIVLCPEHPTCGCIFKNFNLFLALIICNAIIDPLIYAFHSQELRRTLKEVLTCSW

Angiotensin AT1 = biological target: T24, Angiotensin AT1 (Homo sapiens, UniProt P30556); experiment: Cerep SafetyScreen-87; type: binding; details: n=2
T24 construct: purchased Eurofins Cerep/Panlabs SafetyScreen-87

[8] = biological target: T25, Platelet Activating Factor (PAF) (Homo sapiens, UniProt P25105); experiment: Cerep SafetyScreen-87; type: binding; details: n=2
T25 construct: purchased Eurofins Cerep/Panlabs SafetyScreen-87

Adrenergic β1 = biological target: T26, Adrenergic β1 (Homo sapiens, UniProt P08588); experiment: Cerep SafetyScreen-87; type: binding; details: n=2
T26 construct: purchased Eurofins Cerep/Panlabs SafetyScreen-87

Cyclooxigenase COX-1 = biological target: T27, Cyclooxigenase COX-1 (Homo sapiens, UniProt P23219); experiment: Cerep SafetyScreen-87; type: biochemical; details: n=2
T27 construct: purchased Eurofins Cerep/Panlabs SafetyScreen-87

Dopamine D1 = biological target: T28, Dopamine D1 (Homo sapiens, UniProt P21728); experiment: Cerep SafetyScreen-87; type: binding; details: n=2
T28 construct: purchased Eurofins Cerep/Panlabs SafetyScreen-87

Cholecystokinin (CCKB) = biological target: T29, Cholecystokinin (CCKB) (Homo sapiens, UniProt P32239); experiment: Cerep SafetyScreen-87; type: binding; details: n=2
T29 construct: purchased Eurofins Cerep/Panlabs SafetyScreen-87
T29 sequence (P32239 whole entry): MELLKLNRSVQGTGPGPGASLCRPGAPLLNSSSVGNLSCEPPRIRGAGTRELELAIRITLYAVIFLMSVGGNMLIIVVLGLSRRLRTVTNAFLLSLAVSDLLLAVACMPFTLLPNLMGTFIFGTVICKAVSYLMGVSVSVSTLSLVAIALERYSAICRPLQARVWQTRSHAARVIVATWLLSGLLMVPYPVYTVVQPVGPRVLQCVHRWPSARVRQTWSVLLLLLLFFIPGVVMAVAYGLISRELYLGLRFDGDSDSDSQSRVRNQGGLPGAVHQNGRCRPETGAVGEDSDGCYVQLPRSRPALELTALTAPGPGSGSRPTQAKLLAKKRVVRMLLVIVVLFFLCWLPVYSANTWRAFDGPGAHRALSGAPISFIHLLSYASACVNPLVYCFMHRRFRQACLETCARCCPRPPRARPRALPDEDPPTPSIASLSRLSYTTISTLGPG

Tachykinin NK1 = biological target: T30, Tachykinin NK1 (Homo sapiens, UniProt P25103); experiment: Cerep SafetyScreen-87; type: binding; details: n=2
T30 construct: purchased Eurofins Cerep/Panlabs SafetyScreen-87

[9] = biological target: T31, Cholecystokinin CCK1 (CCKA) (Homo sapiens, UniProt P32238); experiment: Cerep SafetyScreen-87; type: binding; details: n=2
T31 construct: purchased Eurofins Cerep/Panlabs SafetyScreen-87

Chemokine CCR1 = biological target: T32, Chemokine CCR1 (Homo sapiens, UniProt P32246); experiment: Cerep SafetyScreen-87; type: binding; details: n=2
T32 construct: purchased Eurofins Cerep/Panlabs SafetyScreen-87

Adrenergic α2B = biological target: T33, Adrenergic α2B (Homo sapiens, UniProt P18089); experiment: Cerep SafetyScreen-87; type: binding; details: n=2
T33 construct: purchased Eurofins Cerep/Panlabs SafetyScreen-87

[10] = biological target: T34, Peptidase, Angiotensin Converting Enzyme (Oryctolagus cuniculus, UniProt P12822); experiment: Cerep SafetyScreen-87; type: biochemical, rabbit; details: n=2
T34 construct: purchased Eurofins Cerep/Panlabs SafetyScreen-87

Muscarinic M2 = biological target: T35, Muscarinic M2 (Homo sapiens, UniProt P08172); experiment: Cerep SafetyScreen-87; type: binding; details: n=2
T35 construct: purchased Eurofins Cerep/Panlabs SafetyScreen-87

Adenosine A2A = Adenosine A2A (Homo sapiens, UniProt P29274); type: cell-based; design: Cerep (contract assay) test=2527; details: functional assay, antagonist mode; read-out: adenosine A2A antagonism IC50
Endothelin ETA = biological target: T36, Endothelin ETA (Homo sapiens, UniProt P25101); experiment: Cerep SafetyScreen-87; type: binding; details: n=2
T36 construct: purchased Eurofins Cerep/Panlabs SafetyScreen-87
T36 sequence (P25101 21-427): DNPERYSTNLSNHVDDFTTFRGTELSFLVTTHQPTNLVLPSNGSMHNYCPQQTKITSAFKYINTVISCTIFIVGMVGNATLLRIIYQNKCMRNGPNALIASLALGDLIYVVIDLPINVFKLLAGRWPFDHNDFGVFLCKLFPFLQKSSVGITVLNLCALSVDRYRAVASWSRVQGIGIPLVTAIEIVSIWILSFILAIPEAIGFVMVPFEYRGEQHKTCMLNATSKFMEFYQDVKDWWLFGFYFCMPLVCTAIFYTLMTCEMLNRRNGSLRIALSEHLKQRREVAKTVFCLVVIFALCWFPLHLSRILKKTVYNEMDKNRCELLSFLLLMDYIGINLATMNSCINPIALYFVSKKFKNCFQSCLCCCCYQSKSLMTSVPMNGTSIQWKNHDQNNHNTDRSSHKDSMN

Opiate µ (OP3, MOP) = biological target: T37, Opiate µ (OP3, MOP) (Homo sapiens, UniProt P35372); experiment: Cerep SafetyScreen-87; type: binding; details: n=2
T37 construct: purchased Eurofins Cerep/Panlabs SafetyScreen-87

Glutamate, NMDA, Glycine = Glutamate, NMDA, Glycine (Rattus norvegicus, UniProt P35439); experiment: Cerep SafetyScreen-87; type: binding; details: n=2
Sequence of Glutamate, NMDA, Glycine (P35439 394-800 limits assumed): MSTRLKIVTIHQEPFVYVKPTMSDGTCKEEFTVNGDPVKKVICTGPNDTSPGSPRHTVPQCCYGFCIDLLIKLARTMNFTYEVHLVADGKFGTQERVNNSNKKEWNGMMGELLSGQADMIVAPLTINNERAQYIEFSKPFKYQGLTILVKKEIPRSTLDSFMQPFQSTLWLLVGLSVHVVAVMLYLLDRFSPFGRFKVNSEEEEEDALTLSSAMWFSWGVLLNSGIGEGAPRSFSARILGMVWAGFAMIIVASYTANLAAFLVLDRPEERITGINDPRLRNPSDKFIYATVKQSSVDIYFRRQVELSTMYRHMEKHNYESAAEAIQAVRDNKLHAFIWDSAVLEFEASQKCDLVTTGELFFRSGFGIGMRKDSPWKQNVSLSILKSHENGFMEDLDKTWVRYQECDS

Estrogen ERα = biological target: T38, Estrogen ERα (Homo sapiens, UniProt P03372); experiment: Cerep SafetyScreen-87; type: binding; details: n=2
T38 construct: purchased Eurofins Cerep/Panlabs SafetyScreen-87
T38 sequence (P03372 whole entry, looked up): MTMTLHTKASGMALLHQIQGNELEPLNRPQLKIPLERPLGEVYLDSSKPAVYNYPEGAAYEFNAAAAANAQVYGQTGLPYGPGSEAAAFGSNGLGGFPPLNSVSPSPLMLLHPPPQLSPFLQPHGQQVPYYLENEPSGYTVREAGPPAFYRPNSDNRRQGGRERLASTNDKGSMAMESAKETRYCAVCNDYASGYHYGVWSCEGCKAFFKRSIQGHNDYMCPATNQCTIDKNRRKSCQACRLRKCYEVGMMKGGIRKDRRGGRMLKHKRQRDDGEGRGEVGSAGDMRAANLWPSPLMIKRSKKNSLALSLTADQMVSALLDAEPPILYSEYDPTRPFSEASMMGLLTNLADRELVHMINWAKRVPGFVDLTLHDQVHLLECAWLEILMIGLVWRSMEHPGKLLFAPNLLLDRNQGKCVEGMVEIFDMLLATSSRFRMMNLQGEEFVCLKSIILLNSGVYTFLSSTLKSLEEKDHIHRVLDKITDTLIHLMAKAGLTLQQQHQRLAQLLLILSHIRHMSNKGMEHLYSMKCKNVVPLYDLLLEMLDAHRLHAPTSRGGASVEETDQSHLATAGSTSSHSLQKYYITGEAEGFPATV

Monoamine Oxidase MAO-A = biological target: T39, Monoamine Oxidase MAO-A (Homo sapiens, UniProt P21397); experiment: Cerep SafetyScreen-87; type: biochemical; details: n=2
T39 construct: purchased Eurofins Cerep/Panlabs SafetyScreen-87

Molecule CCN1CCN(Cc2ccc3cc(C(=O)Nc4cc(NC(=O)c5ccc6c(c5)OCCO6)ccc4F)ccc3n2)CC1 [Compound 22, N-(5-(2,3-Dihydrobenzo[b][1,4]dioxine-6-carboxamido)-2-fluorophenyl)-2-((4-ethylpiperazin-1-yl)methyl)quinoline-6-carboxamide] has an inhibition at 10 µM (Cannabinoid CB2) of 79%, an inhibition at 10 µM (Cyclooxigenase COX-2) of -5% and an inhibition at 10 µM [1] of 2%. For the same molecule, the inhibition at 10 µM (Adrenergic α1D) was 25%, the inhibition at 10 µM [2] was 43% and the inhibition at 10 µM [3] was -7%. It also gave an inhibition at 10 µM (Progesterone PR-B) of 5%, an inhibition at 10 µM (Dopamine D2L) of 20% and an inhibition at 10 µM (Melanocortin MC4) of 2%. It also gave an inhibition at 10 µM (Bradykinin B2) of 0%, an inhibition at 10 µM (Opiate δ1 (OP1, DOP)) of 9% and an inhibition at 10 µM (Muscarinic M3) of 30%. It also gave an inhibition at 10 µM [4] of -8%, an inhibition at 10 µM (Chemokine CXCR2 (IL-8RB)) of 7% and an inhibition at 10 µM (Monoamine Oxidase MAO-B) of 36%. The inhibition at 10 µM (GABAB1A) was 4%, the inhibition at 10 µM (Muscarinic M1) was 43% and the inhibition at 10 µM (Adrenergic β2) was 12%. The inhibition at 10 µM [5] was 25%, the inhibition at 10 µM [6] was 1% and the inhibition at 10 µM (Opiate K (OP2, KOP)) was 51%. It also gave an inhibition at 10 µM [7] of -2%, an inhibition at 10 µM (Melanocortin MC1) of -3% and an inhibition at 10 µM (Angiotensin AT1) of 1%. It also gave an inhibition at 10 µM [8] of […], an inhibition at 10 µM (Adrenergic β1) of 4% and an inhibition at 10 µM (Cyclooxigenase COX-1) of -24%. The inhibition at 10 µM (Dopamine D1) was 41%, the inhibition at 10 µM (Cholecystokinin (CCKB)) was -4% and the inhibition at 10 µM (Tachykinin NK1) was 14%. The inhibition at 10 µM [9] was 9%, the inhibition at 10 µM (Chemokine CCR1) was 2% and the inhibition at 10 µM (Adrenergic α2B) was 79%. For the same molecule, the inhibition at 10 µM [10] was 13%, the inhibition at 10 µM (Muscarinic M2) was 52% and the IC50 (Adenosine A2A) was 2000 nM. For the same molecule, the inhibition at 10 µM (Endothelin ETA) was -2%, the inhibition at 10 µM (Opiate µ (OP3, MOP)) was 44% and the inhibition at 10 µM (Glutamate, NMDA, Glycine) was -24%. The inhibition at 10 µM (Estrogen ERα) was -1% and the inhibition at 10 µM (Monoamine Oxidase MAO-A) was 77%.
